Reference: patent US20150296790A1, “SILICON-CONTAINING COMPOUND AQUEOUS SOLUTION AND ANTIBACTERIAL/ANTIVIRAL AGENT INCLUDING SAID SOLUTION” (JEX CO., LTD., priority 2012, published 2015)

Experiment: Deodorant activity test
Conditions: γ-CD 1 w/w %, Compound E 0.1 w/w %
Protocol: The predetermined samples shown in Tables 1 to 5 were tested for deodorant activity against ammonia, acetic acid, isovaleric acid, and nonenal. Now, the test, including the test conditions, will be specifically described. Test Items: The deodorant test and the test to gain SEK mark approval for textiles according to the certification standards of the Japan Textile Evaluation Technology Council (4 ml of sample liquid was applied to a cotton fabric and dried for a period of from 30 minutes to 1 hour. Then, the concentration of the gas volatilized from the cotton fabric was measured by a detection tube and gas chromatography) Odor tested: Ammonia, acetic acid, isovaleric acid, and nonenal Samples used: Sample 1): Compound E 0.1%+γ-CD 1%+purified water 98.9% • Sample 2): Compound E 0.1%+γ-CD 5%+purified water 94.9% Initial gas concentration: Ammonia: 100 ppm (100 cm^2) • Acetic acid: 50 ppm (100 cm^2) • Isovaleric acid: about 38 ppm (48 cm^2) • Nonenal: about 14 ppm (48 cm^2)

CCCCCCCCCCCCCCCCCC[N+](C)(C)CCC[Si](OCC)(OCC)OCC.[Cl-] [Compound E, Octadecyl dimethyl(3-triethoxysilylpropyl)ammonium chloride]
Deodorant Effect: Deodorant Activity Test (by Detection Tube and Gas Chromatography): Confirmed
